The values below come from publication PMC11866407, “Structure of Clostridium leptum carboxyspermidine decarboxylase and comparison to homologs prevalent within the human gut microbiome” (Acta Crystallographica Section F: Structural Biology …, 2025).

The test has as its target T1, Clostridium leptum carboxyspermidine decarboxylase (ClCASDC) ([Clostridium] leptum, UniProt A7VSG2).
T1 construct: gene nspC; full length (376 residues), N-terminal His6 tag kept (pET-28b NdeI/XhoI), E. coli BL21 (DE3), codon-optimized; homodimer
T1 sequence (A7VSG2 1-376): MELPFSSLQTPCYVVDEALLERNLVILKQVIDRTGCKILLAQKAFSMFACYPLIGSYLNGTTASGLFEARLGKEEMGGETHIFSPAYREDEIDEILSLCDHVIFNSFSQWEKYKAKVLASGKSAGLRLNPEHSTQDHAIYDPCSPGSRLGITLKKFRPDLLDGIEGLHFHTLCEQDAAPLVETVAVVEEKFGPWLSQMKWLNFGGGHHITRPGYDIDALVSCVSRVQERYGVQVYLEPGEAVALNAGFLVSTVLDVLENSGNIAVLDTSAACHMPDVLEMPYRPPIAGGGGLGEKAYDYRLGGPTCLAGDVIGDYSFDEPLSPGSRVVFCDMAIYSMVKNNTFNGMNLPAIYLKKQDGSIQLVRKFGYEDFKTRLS
Nature of the test: X-ray crystal structure, […] Å. Format: binding. The following applies: covalent; Schiff base (internal aldimine) with Lys43; pre-incubated with 100 µM PLP, 5 mM DTT; HEPES pH 6.8; both chains.

Take `Cc1ncc(COP(=O)(O)O)c(C=O)c1O` [PLP, pyridoxal 5′-phosphate]: the “X-ray crystal structure, 1.41 Å” value is “PLP forms a Schiff base with Lys43 in both chains”.
